Assay results reported in patent publication US3959256A.
Converted amounts (≈) assume the structure as drawn. Read-outs that look alike come from different tables or passages of the source.

Key:
[1] = tested on: Bacillus subtilis ATCC 6633; experiment: Minimum inhibitory concentration, standard serial dilution method; type: cell-based; settings: read-out: Minimum Inhibitory Concentrations
[2] = tested on: Bacillus anthracis No.119; experiment: microbe, parasite or virus in culture; type: cell-based; settings: NO.119, 24 h, read-out: Minimum Inhibitory Concentrations
[3] = tested on: Bacillus subtilis PCI 219; experiment: Minimum inhibitory concentration, standard serial dilution method; type: cell-based; settings: read-out: Minimum Inhibitory Concentrations
[4] = tested on: Corynebacterium diphtheriae Type gravis; experiment: as above; type: cell-based; settings: read-out: Minimum Inhibitory Concentrations
Sarcina lutea = experiment: as above; type: cell-based; settings: Micrococcus luteus, read-out: Minimum Inhibitory Concentrations
[5] = tested on: Streptococcus faecalis ATCC 8043; experiment: as above; type: cell-based; settings: Enterococcus faecalis, read-out: Minimum Inhibitory Concentrations
[6] = tested on: Corynebacterium diphtheriae Type intermedius; experiment: as above; type: cell-based; settings: read-out: Minimum Inhibitory Concentrations
[7] = tested on: Streptococcus hemolyticus Cook; experiment: as above; type: cell-based; settings: Streptococcus pyogenes, read-out: Minimum Inhibitory Concentrations
[8] = tested on: Staphylococcus aureus Smith; experiment: as above; type: cell-based; settings: read-out: Minimum Inhibitory Concentrations
[9] = tested on: Staphylococcus albus 1200A; experiment: as above; type: cell-based; settings: read-out: Minimum Inhibitory Concentrations
[10] = tested on: Staphylococcus aureus 209P; experiment: as above; type: cell-based; settings: Brain Heart Infusion broth, 37°C, 24 hours, read-out: Minimum Inhibitory Concentrations
Description: (§1) The minimum inhibitory concentrations of these compounds to various microorganisms were determined according to a standard serial dilution method using Brain Heart Infusion broth as the incubation medium at 37°C, the estimation of the growth of the microorganisms being effected after 24 hours' incubation.

[11] = tested on: Diplococcus pneumoniae Type III; experiment: as above; type: cell-based; settings: Streptococcus pneumoniae, Brain Heart Infusion broth, 37°C, 24 hours, read-out: Minimum Inhibitory Concentrations
Description: as §1

[12] = tested on: Streptococcus hemolyticus D-90; experiment: as above; type: cell-based; settings: Streptococcus pyogenes, D90, Brain Heart Infusion broth, 37°C, 24 hours, read-out: Minimum Inhibitory Concentrations
Description: as §1

[13] = tested on: Streptococcus pyogenes D-58; experiment: as above; type: cell-based; settings: read-out: Minimum Inhibitory Concentrations
mice = experiment: Acute toxicity in mice, intraperitoneal; settings: 3,000 mg/kg intraperitoneally; one week after dosing; 3 mice per group
[14] = tested on: Diplococcus pneumoniae Type I; experiment: Minimum inhibitory concentration, standard serial dilution method; type: cell-based; settings: Streptococcus pneumoniae, read-out: Minimum Inhibitory Concentrations
[15] = tested on: Staphylococcus aureus Terajima; experiment: as above; type: cell-based; settings: read-out: Minimum Inhibitory Concentrations
Staphylococcus aureus = experiment: Curative effect in therapeutic treatment of Staphylococcus aureus infections in mice; settings: oral, immediately after intraperitoneal inoculation, 7th day, 10 mice per group
[16] = ATCC6633, Bacillus subtilis ATCC 6633, Brain Heart Infusion broth, 37°C, 24 hours
[17] = PCI219, Bacillus subtilis PCI 219, Brain Heart Infusion broth, 37°C, 24 hours
[18] = Corynebacterium diphtheriae Type gravis, Brain Heart Infusion broth, 37°C, 24 hours
[19] = Sarcina lutea, Brain Heart Infusion broth, 37°C, 24 hours
[20] = Corynebacterium diphtheriae Type intermedius, Brain Heart Infusion broth, 37°C, 24 hours
[21] = Streptococcus hemolyticus Cook, Brain Heart Infusion broth, 37°C, 24 hours
[22] = Streptococcus pyogenes, D58, 24 h
[23] = Diplococcus pneumoniae Type I, Brain Heart Infusion broth, 37°C, 24 hours
[24] = Staphylococcus aureus Terajima, Brain Heart Infusion broth, 37°C, 24 hours
[25] = Corynebacterium diphtheriae, 24 h

Row | SMILES | MIC [1, 16] [µg/mL] | MIC [2] [µg/mL] | MIC [3, 17] [µg/mL] | MIC [4, 18] [µg/mL] | MIC (Sarcina lutea; [19]) [µg/mL] | MIC ([5]; ATCC8043, 24 h) [µg/mL] | MIC [6, 20] [µg/mL] | MIC [7, 21] [µg/mL] | MIC ([8]; Staphylococcus aureus, 24 h) [µg/mL] | MIC ([9]; Staphylococcus, 1200A, 24 h) [µg/mL] | MIC [10] [µg/mL] | MIC [11] [µg/mL] | MIC [12] [µg/mL] | MIC [13, 22] [µg/mL] | Rate of the sacrificed mice (average) (mice) | MIC [14, 23] [µg/mL] | MIC [15, 24] [µg/mL] | Rate of Surviving Mice (in percentage) (Staphylococcus aureus; 100 mg/kg) [percentage] | Rate of Surviving Mice (in percentage) (Staphylococcus aureus; 200 mg/kg) [percentage] | Rate of Surviving Mice (in percentage) (Staphylococcus aureus; 400 mg/kg) [percentage] | further results
1 | CCC(=O)OC1CC(=O)OC(C)CC=CC=CC(OC(C)=O)C(C)CC(CC=O)C(OC2OC(C)C(OC3CC(C)(OCOC(C)=O)C(OC(=O)CC)C(C)O3)C(N(C)C)C2O)C1OC (stereo not shown) [9-O-acetyl-3"-O-acetoxymethyl-SF-837, 9-O-acetyl-3"-O-acetoxymethyl-SF-837 substance] | 0.78 (≈ 0.84 µM) | 1.56 (≈ 1.68 µM) | 0.78 (≈ 0.84 µM) | 0.19 (≈ 0.205 µM) | 0.19 (≈ 0.205 µM) | 1.56 (≈ 1.68 µM) | 0.19 (≈ 0.205 µM) | 0.19 (≈ 0.205 µM) | 1.56 (≈ 1.68 µM) | 1.56 (≈ 1.68 µM) | 1.56 (≈ 1.68 µM) | 1.56 (≈ 1.68 µM) | 1.56 (≈ 1.68 µM) | 1.56 (≈ 1.68 µM) | 0/3 | 0.19 (≈ 0.205 µM) | 3.13 (≈ 3.37 µM) | – | – | – | –
2 | CCC(=O)OCOC1(C)CC(OC2C(C)OC(OC3C(CC=O)CC(C)C(OC(C)=O)C=CC=CCC(C)OC(=O)CC(OC(=O)CC)C3OC)C(O)C2N(C)C)OC(C)C1OC(=O)CC (stereo not shown) [9-O-acetyl-3"-O-propionyloxymethyl-SF-837 substance] | 0.78 (≈ 0.828 µM) | 1.56 (≈ 1.66 µM) | 0.39 (≈ 0.414 µM) | 0.19 (≈ 0.202 µM) | 0.19 (≈ 0.202 µM) | 1.56 (≈ 1.66 µM) | 0.19 (≈ 0.202 µM) | 0.19 (≈ 0.202 µM) | 1.56 (≈ 1.66 µM) | 1.56 (≈ 1.66 µM) | 1.56 (≈ 1.66 µM) | 1.56 (≈ 1.66 µM) | 1.56 (≈ 1.66 µM) | 1.56 (≈ 1.66 µM) | 0/3 | 0.19 (≈ 0.202 µM) | 3.13 (≈ 3.32 µM) | 67 | 100 | 100 | –
3 | CCC(=O)OC1C=CC=CCC(C)OC(=O)CC(OC(=O)CC)C(OC)C(OC2OC(C)C(OC3CC(C)(OCOC(C)=O)C(OC(=O)CC)C(C)O3)C(N(C)C)C2O)C(CC=O)CC1C (stereo not shown) [9-O-propionyl-3"-O-acetoxymethyl-SF-837, 9-O-propionyl-3"-O-acetoxymethyl-SF-837 substance] | 0.78 (≈ 0.828 µM) | 1.56 (≈ 1.66 µM) | 0.78 (≈ 0.828 µM) | 0.19 (≈ 0.202 µM) | 0.19 (≈ 0.202 µM) | 1.56 (≈ 1.66 µM) | 0.19 (≈ 0.202 µM) | 0.19 (≈ 0.202 µM) | – | 1.56 (≈ 1.66 µM) | 1.56 (≈ 1.66 µM) | 1.56 (≈ 1.66 µM) | 1.56 (≈ 1.66 µM) | – | 0/3 | 0.19 (≈ 0.202 µM) | 3.13 (≈ 3.32 µM) | 33 | 56 | 100 | MIC ([8]; Staphylococcus aureus Smith, Brain Heart Infusion broth, 37°C, 24 hours): 3.13 µg/mL (≈ 3.32 µM); MIC ([13]; D58, Streptococcus pyogenes D-58, Brain Heart Infusion broth, 37°C, 24 hours): 3.13 µg/mL (≈ 3.32 µM)
4 | CCC(=O)OCOC1(C)CC(OC2C(C)OC(OC3C(CC=O)CC(C)C(OC(=O)CC)C=CC=CCC(C)OC(=O)CC(OC(=O)CC)C3OC)C(O)C2N(C)C)OC(C)C1OC(=O)CC (stereo not shown) [9-O-propionyl-3"-O-propionyloxymethyl-SF-837 substance] | 0.78 (≈ 0.816 µM) | 1.56 (≈ 1.63 µM) | 0.78 (≈ 0.816 µM) | 0.19 (≈ 0.199 µM) | 0.19 (≈ 0.199 µM) | – | 0.19 (≈ 0.199 µM) | – | 1.56 (≈ 1.63 µM) | – | 1.56 (≈ 1.63 µM) | 1.56 (≈ 1.63 µM) | 1.56 (≈ 1.63 µM) | 1.56 (≈ 1.63 µM) | 0/3 | 0.19 (≈ 0.199 µM) | 3.13 (≈ 3.27 µM) | 33 | 56 | 100 | MIC ([5]; ATCC8043, Streptococcus faecalis ATCC 8043, Brain Heart Infusion broth, 37°C, 24 hours): 3.13 µg/mL (≈ 3.27 µM); MIC ([7]; 24 h): 1.56 µg/mL (≈ 1.63 µM); MIC ([9]; Staphylococcus albus 1200A, Brain Heart Infusion broth, 37°C, 24 hours): 3.13 µg/mL (≈ 3.27 µM)
5 | CCC(=O)OC1CC(=O)OC(C)CC=CC=CC(O)C(C)CC(CC=O)C(OC2OC(C)C(OC3CC(C)(O)C(OC(=O)CC)C(C)O3)C(N(C)C)C2O)C1OC (stereo not shown) [SF-837 (the free base), reference compound] | – | 0.78 (≈ 0.958 µM) | – | – | – | 1.56 (≈ 1.92 µM) | – | – | 0.19 (≈ 0.233 µM) | 0.78 (≈ 0.958 µM) | 0.78 (≈ 0.958 µM) | 0.04 (≈ 0.0491 µM) | 1.56 (≈ 1.92 µM) | 0.09 (≈ 0.111 µM) | 3/3 | – | – | 0 | 45 | 67 | MIC ([1]; Bacillus subtilis, ATCC6633, 24 h): 1.56 µg/mL (≈ 1.92 µM); MIC ([3]; Bacillus subtilis, PCI219, 24 h): 0.78 µg/mL (≈ 0.958 µM); MIC [4, 25]: 0.19 µg/mL (≈ 0.233 µM); MIC (Sarcina lutea; 24 h): 0.09 µg/mL (≈ 0.111 µM); MIC [6, 25]: 0.19 µg/mL (≈ 0.233 µM); MIC ([7]; 24 h): 0.09 µg/mL (≈ 0.111 µM); MIC ([14]; 24 h): 0.04 µg/mL (≈ 0.0491 µM); MIC ([15]; Staphylococcus aureus, 24 h): 1.56 µg/mL (≈ 1.92 µM)
